According to patent US20240024324A1, “KINASE INHIBITOR COMBINATIONS FOR CANCER TREATMENT” (Merck Patent GmbH, priority 2020, published 2024):

How the values were obtained:
Akt = details: variety of cell-based assays; cited from earlier work
[1] = tested on: Non-Small Lung Cancer (NSCLC) Brain Metastases PDX; assay: PDX models of NSCLC brain metastases; type: in vivo
[2] = tested on: Her2+/HR− Breast Cancer PDX; assay: PDX models of Her2+/HR- breast cancer; type: in vivo
Colorectal Cancer PDX = assay: 75 PDX models of colorectal cancer; type: in vivo; details: CRC PDX; M2698 25 mg/kg po qd, Pimasertib 20 mg/kg po qd, Cetuximab 20 mg/kg ip q2w
Excerpt: Of the 75 models, 25 were wild type, 25 KRas mutant, and 25 BRaf mutant.

cancer cell lines = details: broad panel of cancer cell lines; cited from earlier work
[3] = in vivo; cited from earlier work
SCCHN PDX = assay: 38 PDX models of SCCHN, 1+1 screen; type: in vivo, mouse; details: 38 models, M2698 25 mg/kg PO QDx28, Cetuximab 30 mg/kg IP 2wklyx4
Experimental: 46 SCCHN PDX models were run in a 1+1 scheme (one mouse per treatment group). […] With the adjustment to the cancellation, 38 models were completed. […] After implantation, treatments began when average tumor volume reached ˜200 mm^3 for each model. Tumor volumes were measured for each model until the control tumor reached ˜1200 mm^3 at which time all animals for that model were euthanized.

p70S6K = p70S6K (Homo sapiens, UniProt P23443); details: variety of cell-based assays; cited from earlier work
GSC17 [4] = assay: Induction of apoptosis in GSC lines in vitro; type: cell-based
Experimental: (§1) FIG. 1: In vitro analyses in GSC lines. (A) Western blot analysis of protein expression; (B) IC50 of M2698; (C) IC50 of pimasertib; and (D) apoptotic GSC11, GSC7-2, and GSC17 cells after treatment with M2698, pimasertib, or M2698+pimasertib combination. […]
(§2) Induction of apoptosis by M2698, pimasertib, and the combination was measured in three of five GSC lines that were sensitive to M2698 in vitro.

GSC11 [5] = assay: Induction of apoptosis in GSC lines in vitro; type: cell-based
Experimental: as §1, §2

GSC7-2 [6] = assay: Induction of apoptosis in GSC lines in vitro; type: cell-based
Experimental: as §1, §2

GSC8-11 = assay: GSC lines: sensitivity in vitro (IC50); type: cell-based; details: GSC8-11 line in vitro
Experimental: (§3) FIG. 1: In vitro analyses in GSC lines. (A) Western blot analysis of protein expression; (B) IC50 of M2698; (C) IC50 of pimasertib; and (D) apoptotic GSC11, GSC7-2, and GSC17 cells after treatment with M2698, pimasertib, or M2698+pimasertib combination. Single agents were tested at their IC50; half the IC50 of each compound was used for the combination.
(§4) All GSC lines expressed Akt. Relatively high pAkt expression in GSC17, GSC7-2, GSC231, GSC11, GSC20, GSC6-27, and GSC8-11 lines compared with GSC272 and GSC267 (FIG. 1A).

GSC231 [7] = assay: GSC lines: sensitivity in vitro (IC50); type: cell-based; details: GSC231 line in vitro
Experimental: as §3, §4

GSC20 [8] = assay: GSC lines: sensitivity in vitro (IC50); type: cell-based; details: GSC20 line
Experimental: as §3, §4

GSC17 [9] = assay: GSC lines: sensitivity in vitro (IC50); type: cell-based; details: GSC17 line in vitro
Experimental: as §3, §4

GSC6-27 [10] = assay: GSC lines: sensitivity in vitro (IC50); type: cell-based; details: GSC6-27 line in vitro
Experimental: as §3, §4

GSC11 [11] = assay: GSC lines: sensitivity in vitro (IC50); type: cell-based; details: GSC11 line in vitro
Experimental: as §3, §4

GSC7-2 [12] = assay: GSC lines: sensitivity in vitro (IC50); type: cell-based; details: GSC7-2 line in vitro
Experimental: as §3, §4

human GBM = details: orthotopically implanted models of human GBM; cited from earlier work
[13] = tested on: human cholangiocarcinoma cancer PDX; assay: PDX models of cholangiocarcinoma; type: in vivo, mice; details: 20 mg/kg each agent QD PO
Excerpt: The objective of this experiment was to evaluate the antitumor activity of M2698 alone and in combination with Pimasertib in a panel of 13 Patient-Derived Xenograft models representing human cholangiocarcinoma cancer derived from Chinese patients in immune-deficient mice.
Vehicle: 0.5% Methocel/0.25% Tween20 in Milli-Q Water. Tumors from three untreated mice were collected as satellite samples when reached a tumor volume between 300-500 mm3.

GSC231 [14] = assay: Orthotopic GSC xenograft model; type: in vivo, mice
Experimental: (§5) The in vivo effects of M2698 and pimasertib, alone and in combination, were assessed in the GSC models after orthotopic implantation into mice. Treatment duration and time of euthanasia post-implantation was 5-10 weeks. Endpoints were expression of PD markers pS6 and pERK, proliferation marker Ki67, apoptosis as measured by TUNEL, tumor volume and survival.

GSC20 [15] = assay: Orthotopic GSC xenograft model; type: in vivo, mice
Experimental: as §5

GSC17 [16] = assay: Orthotopic GSC xenograft model; type: in vivo, mice
Experimental: as §5

GSC6-27 [17] = assay: Orthotopic GSC xenograft model; type: in vivo, mice
Experimental: as §5

GSC11 [18] = assay: Orthotopic GSC xenograft model; type: in vivo, mice
Experimental: as §5

GSC7-2 [19] = assay: Orthotopic GSC xenograft model; type: in vivo, mice
Experimental: as §5

GSC272 = assay: Orthotopic GSC xenograft model; type: in vivo, mice
Experimental: as §5

Sequence of p70S6K (P23443 whole entry): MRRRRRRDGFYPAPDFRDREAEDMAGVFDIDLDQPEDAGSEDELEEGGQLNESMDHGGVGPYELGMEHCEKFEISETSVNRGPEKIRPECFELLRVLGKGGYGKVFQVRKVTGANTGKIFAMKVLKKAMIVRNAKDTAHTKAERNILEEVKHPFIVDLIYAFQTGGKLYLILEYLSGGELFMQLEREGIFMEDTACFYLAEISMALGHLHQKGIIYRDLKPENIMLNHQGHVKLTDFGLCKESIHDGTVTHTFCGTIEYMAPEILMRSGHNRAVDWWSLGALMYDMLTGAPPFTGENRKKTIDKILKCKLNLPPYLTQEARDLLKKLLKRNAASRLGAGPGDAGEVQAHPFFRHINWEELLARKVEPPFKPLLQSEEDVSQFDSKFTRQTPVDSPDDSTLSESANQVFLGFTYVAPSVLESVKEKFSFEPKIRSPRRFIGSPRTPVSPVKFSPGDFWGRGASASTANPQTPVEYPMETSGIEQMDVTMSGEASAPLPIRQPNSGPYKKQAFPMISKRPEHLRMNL

For `NC(=O)c1cccc2c(N[C@H](CN3CCC3)c3ccc(Cl)c(C(F)(F)F)c3)ncnc12` [M2698, 4-[(S)-2-Azetidin-1-yl-1-(4-chloro-3-trifluoromethyl-phenyl)-ethylamino]-quinazoline-8-carboxylic acid amide], the “inhibition of Akt” value (Akt) is given as “highly potent”, the “tumor control rate (TCR)” value [1] is given as 5% and the “tumor volume over the duration of the experiment” value [2] is given as “stasis of the tumor volume”. For the same molecule, the “tumor control rate (TCR)” value (Colorectal Cancer PDX) was 15%, the “tumor control rate (TCR), models controlled/models” value (Colorectal Cancer PDX) was 11/74 and the “anti-tumor activity” value (cancer cell lines) was “potent anti-tumor activity”. For the same molecule, the blood-brain barrier penetration [3] was “crosses the blood-brain barrier”, the “Models with an Overall Response (“RECIST”)” value (SCCHN PDX) was 7/38 and the “Partial response (number of models)” value (SCCHN PDX) was 0. For the same molecule, the “Tumor Progression (number of models)” value (SCCHN PDX) was 31, the “Tumor Stasis (number of models)” value (SCCHN PDX) was 7 and the “tumor control rate (TCR)” value (SCCHN PDX) was 18%. For the same molecule, the “inhibition of p70S6K” value (p70S6K) was “highly potent”, the apoptotic percentage (GSC17 [4]; GSC17, monotherapy at 2×IC50) was 12% and the apoptotic percentage (GSC17 [4]; GSC17, monotherapy at the IC50) was 11%. The apoptotic percentage (GSC11 [5]; GSC11, monotherapy at 2×IC50) was 62%, the apoptotic percentage (GSC11 [5]; GSC11, monotherapy at the IC50) was 56% and the apoptotic percentage (GSC7-2 [6]; GSC7-2, monotherapy at 2×IC50) was 17%. The apoptotic percentage (GSC7-2 [6]; GSC7-2, monotherapy at the IC50) was 13%, the IC50 (GSC8-11) was under 2000 nM and the IC50 (GSC231 [7]) was under 2000 nM. For the same molecule, the “sensitivity in vitro” value (GSC20 [8]) was “insensitivity”, the IC50 (GSC17 [9]) was under 2000 nM and the IC50 (GSC6-27 [10]) was under 2000 nM. The IC50 (GSC11 [11]) was under 2000 nM, the IC50 (GSC7-2 [12]) was under 2000 nM and the survival (human GBM) was “prolongs survival”. For the same molecule, the tumor growth (human GBM) was “reduces tumor growth”, the “tumor stasis, number of tumor samples” value [13] was 2/12 and the “tumor stasis, share of tumor samples” value [13] was 17%. The “pERK expression in orthotopic tumor” value (GSC231 [14]; GSC231, PD marker) was “reduced pERK”, the “pS6 expression in orthotopic tumor” value (GSC231 [14]; GSC231, PD marker) was “significantly reduced pS6” and the median survival (GSC231 [14]; GSC231 orthotopic, vs vehicle) was “prolonged survival”. The “tumor volume / tumor growth” value (GSC231 [14]; GSC231 orthotopic, vs vehicle) was “significantly inhibited tumor growth”, the “pS6 expression in orthotopic tumor” value (GSC20 [15]; GSC20, PD marker) was “lack of significant response” and the “tumor volume / tumor growth” value (GSC20 [15]; GSC20 orthotopic, vs vehicle) was “had not responded”. For the same molecule, the “pERK expression in orthotopic tumor” value (GSC17 [16]; GSC17, PD marker) was “reduced pERK”, the “pS6 expression in orthotopic tumor” value (GSC17 [16]; GSC17, PD marker) was “significantly reduced pS6” and the “tumor volume / tumor growth” value (GSC17 [16]; GSC17 orthotopic, vs vehicle) was “significantly inhibited tumor growth”. The “proliferation (Ki67 by immunohistochemistry)” value (GSC17 [16]; GSC17 tumor sections, compared to vehicle) was “significantly reduced proliferation”, the “pERK expression in orthotopic tumor” value (GSC6-27 [17]; GSC6-27, PD marker) was “reduced pERK” and the “pS6 expression in orthotopic tumor” value (GSC6-27 [17]; GSC6-27, PD marker) was “significantly reduced pS6”. For the same molecule, the “tumor volume / tumor growth” value (GSC6-27 [17]; GSC6-27 orthotopic, vs vehicle) was “significantly inhibited tumor growth”, the “pERK expression in orthotopic tumor” value (GSC11 [18]; GSC11, PD marker) was “reduced pERK” and the “pS6 expression in orthotopic tumor” value (GSC11 [18]; GSC11, PD marker) was “significantly reduced pS6”. For the same molecule, the “tumor volume / tumor growth” value (GSC11 [18]; GSC11 orthotopic, vs vehicle) was “had a trend to do so”, the “pERK expression in orthotopic tumor” value (GSC7-2 [19]; GSC7-2, PD marker) was “reduced pERK” and the “pS6 expression in orthotopic tumor” value (GSC7-2 [19]; GSC7-2, PD marker) was “significantly reduced pS6”. The “tumor volume / tumor growth” value (GSC7-2 [19]; GSC7-2 orthotopic, vs vehicle) was “significantly inhibited tumor growth”, the “proliferation (Ki67 by immunohistochemistry)” value (GSC7-2 [19]; GSC7-2 tumor sections, compared to vehicle) was “significantly reduced proliferation” and the “number of apoptotic cells/field” value (GSC7-2 [19]; GSC7-2 xenografts, after 10 weeks) was 52.17±25.20 cells/field. The “apoptosis in xenografts vs control” value (GSC7-2 [19]; GSC7-2 xenografts, at 7.5 weeks) was “Neither M2698, pimasertib, nor combination treatment significantly affected apoptosis”, the “pERK expression in orthotopic tumor” value (GSC272; GSC272, PD marker) was “reduced pERK” and the “pS6 expression in orthotopic tumor” value (GSC272; GSC272, PD marker) was “significantly reduced pS6”. The median survival (GSC272; GSC272 orthotopic, vs vehicle) was “prolonged survival” and the “tumor volume / tumor growth” value (GSC272; GSC272 orthotopic, vs vehicle) was “significantly inhibited tumor growth”.
